We go through three molecules from US20240270786A1, “STEROID COMPOUNDS” (Epirium Bio Inc., priority 2022, published 2024).

Molecules are shown by their SMILES. Where “and” joins values, the source holds several entries; their conditions need not be identical. Equal entries are not always repeated.

In this test the test system is PGC-1α. Put plainly: In vivo PGC-1α expression in liver of LPS-treated mice (ELISA). The arrangement: species or system C57BL/6 mice. The settings on record: LPS 3 mg/Kg IP, test compound 10 mg/kg PO BID, liver, 24 hours post LPS; for PGC-1α levels: C57BL/6 mice; for PGC-1α level (%): Control = 100. The method, then: C57BL/6 mice were procured from Vivo Bio Tech Ltd. Male mice were used for the study within an age range of 7 to 8 weeks. Body weight for these mice ranged from 20 g to 25 g. Animals were housed in a group of 6 in individually ventilated cages with temperature of 22±3° C., a relative humidity of 50 to 60%. The bottom of the cages was layered with sterilized corn cob. Animals were provided with gamma irradiated feed and autoclaved drinking water ad-libitum. The IVCs were maintained at an environment controlled (Centrally Air-Conditioned) room at a temperature of 22±3° C., a relative humidity of 50 to 60%, light intensity of 250-300 lux and a 12 hour light-dark cycle and noise intensity of <85 db.
Method of Preparation: LPS was dosed at 3 mg/kg in a dose volume of 10 ml/kg. For this, 0.3 mg/ml of LPS solution (Micronized suspension) was prepared. Butter paper was placed on analytical balance, tarred and LPS was placed on butter paper and its weight was noted down. LPS was transferred to 15 ml falcon tube. Then required amount of normal saline was added to it to make it 0.3 mg/ml. The solution was vortexed properly for 5 minutes and placed on ice. LPS solution was vortexed every time before aspiration and injection.
LPS was dosed at 3 mg/kg. Each test compound was dosed at 10 mg/kg, 2 hour and 15 min post LPS administration.
0.5% CMC was used as a vehicle with a dose volume of 10 ml/kg. An IP route was used for LPS, and a PO route was used for each test compound. Animals were sacrified 24 hours post LPS dosing, and plasma were collected. PGC-1α level was measured in liver samples, and other tissues were stored for future analysis. PGC-1α level was checked using ELISA kit—CUSABIO Mouse PPARGC1A ELISA kit.
Protocol: One day before start of the experiment C57BL/6 Mice (Male, 6-7-week-old) were randomized on the basis of their body weight and were divided into groups. All the cages were assigned the respective group name. Animals inside each cage were marked on the base of the tails with permanent marker to distinguish each animal. Mice were fasted overnight. Next day morning animals were dosed with test item. Group 1 (Control) and Group 2 (LPS) Animals were dosed with vehicle (0.5% CMC). Test items were prepared in 0.5% CMC by trituration in mortar and pestle and addition of CMC drop by drop. 2 hour post test item/vehicle dosing animals were administered with LPS through IP route at 3 mg/kg of body weight. Group 1 (Control) animals were administered with saline. 0.25 hour post LPS administration, animals were again dosed with test item/vehicle. Post dosing, animals were returned to their respective cages and kept until termination of the study. No feed was offered to any group. Animals were provided with water. 24 hour post LPS administration, blood was collected from each animal under influence of mild isoflurane anesthesia through retro-orbital technique. Animals were sacrificed by CO2 asphyxiation technique. Post-termination, animals were dissected and vital organs, liver, brain, skeleton muscle were collected in Eppendorf tubes and flash frozen in liquid nitrogen. Serum was collected from whole blood by centrifuging it at 4° C. at 10,000 RPM and for 10 minutes. (Blood was left for 2 hour for coagulation before centrifugation) After completion of the experiment, all collected samples were stored at −80° C. until analysis.
Assay Methods/Protocol: The mortar was chilled with liquid nitrogen and then the small tissue pieces were grinded in the presence of liquid nitrogen to a fine powder. Immediately after grinding, transferred small amount of tissue powder to a 1.5 ml micro centrifuge tube containing 1.0 ml lysis buffer (RIPA buffer+Protease inhibitor). The samples were then incubated on ice for 2 hours. The samples were vortexed every 15 minutes. The samples were then centrifuged at 13000×g for 15 minutes at 2-8° C. After centrifugation the supernatant was removed carefully and pellet was discarded. […]
(ELISA stands for enzyme-linked immunosorbent assay.)

With `CN1C(=O)CC[C@@]2(C)C1=CCC1C2[C@@H](O)C[C@@]2(C)C1CC[C@@H]2NC(=O)C1CC1` (stereo partly drawn) [Compound 26, N-((4aR,5S,6aS,7S)-5-hydroxy-1,4a,6a-trimethyl-2-oxo-2,3,4,4a,4b,5,6,6a,7,8,9,9a,9b,10-tetradecahydro-1H-indeno[5,4-f]quinolin-7-yl)cyclopropanecarboxamide], the PGC-1α levels turned out to be 32298 pg/mL and the “PGC-1α level (%)” value came out at 84%.

As for `CC(C)CCNC(=O)C1CCC2C3CC=C4N(C)C(=O)CC[C@]4(C)C3[C@@H](O)C[C@]12C` (stereo partly drawn) [Compound 36, (4aR,5S,6aS)-5-hydroxy-N-isopentyl-1,4a,6a-trimethyl-2-oxo-2,3,4,4a,4b,5,6,6a,7,8,9,9a,9b,10-tetradecahydro-1H-indeno[5,4-f]quinoline-7-carboxamide], the PGC-1α levels stood at 29341 pg/mL and the “PGC-1α level (%)” value is listed as 77%.

Take `CNC(=O)[C@H]1CCC2C3CC=C4N(C)C(=O)CC[C@]4(C)C3[C@@H](O)C[C@@]21C` (stereo partly drawn) [Compound 40, (4aR,5S,6aS)-5-hydroxy-N,1,4a,6a-tetramethyl-2-oxo-2,3,4,4a,4b,5,6,6a,7,8,9,9a,9b,10-tetradecahydro-1H-indeno[5,4-f] quinoline-7-carboxamide]: the PGC-1α levels was 39014 pg/mL and 22668 pg/mL; the “PGC-1α level (%)” value is 73% and 75%.
